System: MV-4-11 cells
Assay: Gene expression microarray analysis (Affymetrix PrimeView) and GSEA
Format: cell-based, human
Design: RFU PODN (11730768_x_at) / Fold change /veh PODN (11730768_x_at) / RFU LINC00158 (11744669_a_at) / Fold change /veh LINC00158 (11744669_a_at) / RFU DUSP10 (11751237_a_at) / Fold change /veh DUSP10 (11751237_a_at) / RFU ID3 (11757404_x_at) / Fold change /veh ID3 (11757404_x_at) / RFU PLEKHG5 (11737974_s_at) / Fold change /veh PLEKHG5 (11737974_s_at) / RFU LRRC4B (11730491_at) / Fold change /veh LRRC4B (11730491_at) / RFU GIMAP4 (11747438_a_at) / Fold change /veh GIMAP4 (11747438_a_at) / RFU KRT8 (11758183_x_at) / Fold change /veh KRT8 (11758183_x_at) / RFU CNN1 (11734310_a_at) / Fold change /veh CNN1 (11734310_a_at) / RFU VPS37D (11726825_at) / Fold change /veh VPS37D (11726825_at) / RFU C10orf10 (11716522_x_at) / Fold change /veh C10orf10 (11716522_x_at) / RFU KIR2DL2 /// KIR2DL4 /// KIR2DL5A /// KIR2DL5B /// KIR2DS1 /// KIR2DS2 /// KIR2DS3 /// KIR2DS4 /// KIR3DL3 /// KIR3DL3 /// KIR3DS1 (11738374_at) / Fold change /veh KIR2DL2 /// KIR2DL4 /// KIR2DL5A /// KIR2DL5B /// KIR2DS1 /// KIR2DS2 /// KIR2DS3 /// KIR2DS4 /// KIR3DL3 /// KIR3DL3 /// KIR3DS1 (11738374_at) / RFU C1QL1 (11718748_at) / Fold change /veh C1QL1 (11718748_at) / RFU TMPRSS4 (11747572_a_at) / Fold change /veh TMPRSS4 (11747572_a_at) / RFU HAMP (11756126_x_at) / Fold change /veh HAMP (11756126_x_at) / RFU RNFT2 (11725882_a_at) / Fold change /veh RNFT2 (11725882_a_at) / RFU NR4A2 (11747474_a_at) / Fold change /veh NR4A2 (11747474_a_at) / RFU ABCC12 (11746883_a_at) / Fold change /veh ABCC12 (11746883_a_at) / RFU TMEM136 (11760407_x_at) / Fold change /veh TMEM136 (11760407_x_at) / RFU CLDN22 /// WWC2 (11732394_at) / Fold change /veh CLDN22 /// WWC2 (11732394_at) / RFU HLA-DPB1 (11760878_x_at) / Fold change /veh HLA-DPB1 (11760878_x_at) / RFU SPINT1 (11716480_a_at) / Fold change /veh SPINT1 (11716480_a_at) / RFU GAP43 (11754022_s_at) / Fold change /veh GAP43 (11754022_s_at) / RFU A4GNT (11735810_at) / Fold change /veh A4GNT (11735810_at) / RFU PRB3 (11715151_x_at) / Fold change /veh PRB3 (11715151_x_at) / RFU TUBB4B (11761932_at) / Fold change /veh TUBB4B (11761932_at) / RFU CAPN14 (11732068_a_at) / Fold change /veh CAPN14 (11732068_a_at) / RFU TMCC2 (11721928_a_at) / Fold change /veh TMCC2 (11721928_a_at) / RFU IRGQ (11745062_a_at) / Fold change /veh IRGQ (11745062_a_at) / RFU FAM174B (11720279_a_at) / Fold change /veh FAM174B (11720279_a_at) / RFU TMPRSS4 (11748680_a_at) / Fold change /veh TMPRSS4 (11748680_a_at) / RFU FAM212B (11763350_a_at) / Fold change /veh FAM212B (11763350_a_at) / RFU PLEKHG5 (11743358_a_at) / Fold change /veh PLEKHG5 (11743358_a_at) / RFU ZSCAN30 (11745921_a_at) / Fold change /veh ZSCAN30 (11745921_a_at) / RFU CMKLR1 (11741424_a_at) / Fold change /veh CMKLR1 (11741424_a_at) / RFU LOC101060620 /// MAPK8IP1 (11723275_at) / Fold change /veh LOC101060620 /// MAPK8IP1 (11723275_at) / RFU SPTSSB (11747773_x_at) / Fold change /veh SPTSSB (11747773_x_at) / RFU PRSS12 (11739890_at) / Fold change /veh PRSS12 (11739890_at) / RFU BIN1 (11741810_x_at) / Fold change /veh BIN1 (11741810_x_at) / RFU WNT11 (11732464_a_at) / Fold change /veh WNT11 (11732464_a_at) / RFU C10orf10 (11716521_a_at) / Fold change /veh C10orf10 (11716521_a_at) / RFU C5orf56 (11738089_at) / Fold change /veh C5orf56 (11738089_at) / RFU CYB561 (11721691_x_at) / Fold change /veh CYB561 (11721691_x_at) / RFU ANKRD19P (11752326_a_at) / Fold change /veh ANKRD19P (11752326_a_at) / RFU OR2T12 /// OR2T33 /// OR2T8 (11738714_s_at) / Fold change /veh OR2T12 /// OR2T33 /// OR2T8 (11738714_s_at) / RFU VCAN (11748164_a_at) / Fold change /veh VCAN (11748164_a_at) / RFU JSRP1 (11732532_at) / Fold change /veh JSRP1 (11732532_at) / RFU KRTAP10-11 (11738290_x_at) / Fold change /veh KRTAP10-11 (11738290_x_at) / RFU MYO3A (11730013_a_at) / Fold change /veh MYO3A (11730013_a_at) / RFU EBF3 (11725865_a_at) / Fold change /veh EBF3 (11725865_a_at) / RFU CAMK2N1 (11719241_x_at) / Fold change /veh CAMK2N1 (11719241_x_at) / RFU C5orf56 (11738088_a_at) / Fold change /veh C5orf56 (11738088_a_at) / RFU OLFML3 (11715873_a_at) / Fold change /veh OLFML3 (11715873_a_at) / RFU LOC100653217 /// NTM (11731650_a_at) / Fold change /veh LOC100653217 /// NTM (11731650_a_at) / RFU MAPK11 (11762145_a_at) / Fold change /veh MAPK11 (11762145_a_at) / RFU FIZ1 (11724087_x_at) / Fold change /veh FIZ1 (11724087_x_at) / RFU OASL (11726364_x_at) / Fold change /veh OASL (11726364_x_at) / RFU SOX15 (11748057_x_at) / Fold change /veh SOX15 (11748057_x_at) / RFU CD79A (11719716_a_at) / Fold change /veh CD79A (11719716_a_at) / RFU HIST1H1D (11736915_at) / Fold change /veh HIST1H1D (11736915_at) / RFU CASKIN2 (11723855_a_at) / Fold change /veh CASKIN2 (11723855_a_at) / RFU LOC730098 (11760151_x_at) / Fold change /veh LOC730098 (11760151_x_at) / RFU OR4N2 (11742367_at) / Fold change /veh OR4N2 (11742367_at) / RFU PRRT2 (11749266_a_at) / Fold change /veh PRRT2 (11749266_a_at) / RFU SNX32 (11753110_a_at) / Fold change /veh SNX32 (11753110_a_at) / RFU CDHR5 (11726645_a_at) / Fold change /veh CDHR5 (11726645_a_at) / RFU RCAN1 (11760418_a_at) / Fold change /veh RCAN1 (11760418_a_at) / RFU FAM167A (11723789_a_at) / Fold change /veh FAM167A (11723789_a_at) / RFU FAM26E (11764081_at) / Fold change /veh FAM26E (11764081_at) / RFU ISYNA1 (11749810_s_at) / Fold change /veh ISYNA1 (11749810_s_at) / RFU ACY1 (11761880_at) / Fold change /veh ACY1 (11761880_at) / RFU 11764098_at / Fold change /veh 11764098_at / RFU SAMD14 (11745864_x_at) / Fold change /veh SAMD14 (11745864_x_at) / RFU NPB (11741838_a_at) / Fold change /veh NPB (11741838_a_at) / RFU TMPRSS6 (11731388_a_at) / Fold change /veh TMPRSS6 (11731388_a_at) / RFU KRTAP10-2 (11738614_at) / Fold change /veh KRTAP10-2 (11738614_at) / RFU ARHGAP8 /// PRR5-ARHGAP8 (11727945_x_at) / Fold change /veh ARHGAP8 /// PRR5-ARHGAP8 (11727945_x_at) / RFU KRTAP5-7 /// NADSYN1 (11734609_at) / Fold change /veh KRTAP5-7 /// NADSYN1 (11734609_at) / RFU RASL12 (11751679_a_at) / Fold change /veh RASL12 (11751679_a_at) / RFU CDKN2B (11736163_a_at) / Fold change /veh CDKN2B (11736163_a_at) / RFU PRF1 (11729649_at) / Fold change /veh PRF1 (11729649_at) / RFU, ZNF638 /// ZNF638-IT1 / Fold change vs veh, ZNF638 /// ZNF638-IT1 / RFU, PANK3 / Fold change vs veh, PANK3 / RFU, SH3YL1 / Fold change vs veh, SH3YL1 / RFU, ZEB2 / Fold change vs veh, ZEB2 / RFU, NRIP1 / Fold change vs veh, NRIP1 / RFU, PTTG1IP / Fold change vs veh, PTTG1IP / RFU, CAPN2 / Fold change vs veh, CAPN2 / RFU, MED14 / Fold change vs veh, MED14 / RFU, SNORA58 / Fold change vs veh, SNORA58 / RFU, C1orf63 / Fold change vs veh, C1orf63 / RFU, LRRFIP1 / Fold change vs veh, LRRFIP1 / RFU, NDUFAF7 / Fold change vs veh, NDUFAF7 / RFU, SLC12A2 / Fold change vs veh, SLC12A2 / RFU, IBTK / Fold change vs veh, IBTK / RFU, ESF1 / Fold change vs veh, ESF1 / Fold change vs veh, TMEM50B / RFU, TAOK1 / Fold change vs veh, TAOK1 / RFU, ACBD3 / Fold change vs veh, ACBD3 / RFU, TMA16 / Fold change vs veh, TMA16 / RFU, RWDD3 / Fold change vs veh, RWDD3 / RFU, BCAT1 / Fold change vs veh, BCAT1 / RFU, EDEM3 / Fold change vs veh, EDEM3 / RFU, TMEM33 / Fold change vs veh, TMEM33 / RFU, WDR75 / Fold change vs veh, WDR75 / RFU, AHCTF1 / Fold change vs veh, AHCTF1 / RFU, TFRC / Fold change vs veh, TFRC / RFU, ZDHHC17 / Fold change vs veh, ZDHHC17 / RFU, NOM1 / Fold change vs veh, NOM1 / RFU, ARL8B / Fold change vs veh, ARL8B / RFU, ZBTB11 / Fold change vs veh, ZBTB11 / RFU, TAMM41 / Fold change vs veh, TAMM41 / RFU, KIAA1704 /// LOC100996395 / Fold change vs veh, KIAA1704 /// LOC100996395 / RFU, ING1 / Fold change vs veh, ING1 / RFU, TRMT61B / Fold change vs veh, TRMT61B / RFU, FUBP3 / Fold change vs veh, FUBP3 / RFU, TP53 / Fold change vs veh, TP53 / RFU, TNKS2 / Fold change vs veh, TNKS2 / RFU, ZFP14 / Fold change vs veh, ZFP14 / RFU, ACTR2 / Fold change vs veh, ACTR2 / RFU, PPP3R1 / Fold change vs veh, PPP3R1 / RFU, PIK3R1 / Fold change vs veh, PIK3R1 / RFU, HNRNPA1 / Fold change vs veh, HNRNPA1 / RFU, RNF170 / Fold change vs veh, RNF170 / RFU, ZNF28 / Fold change vs veh, ZNF28 / RFU, RNGTT / Fold change vs veh, RNGTT / RFU, OGT / Fold change vs veh, OGT / RFU, BRD1 / Fold change vs veh, BRD1 / RFU, MARS / Fold change vs veh, MARS / RFU, ZNF655 / Fold change vs veh, ZNF655 / RFU, FAHD1 / Fold change vs veh, FAHD1 / RFU, BDP1 / Fold change vs veh, BDP1 / RFU, LRRCC1 / Fold change vs veh, LRRCC1 / RFU, ARID1A / Fold change vs veh, ARID1A / RFU, ZNF146 / Fold change vs veh, ZNF146 / RFU, ZNF330 / Fold change vs veh, ZNF330 / RFU, GPN3 / Fold change vs veh, GPN3 / RFU, C9orf123 / Fold change vs veh, C9orf123 / RFU, N4BP2L2 / Fold change vs veh, N4BP2L2 / RFU, ARFIP1 / Fold change vs veh, ARFIP1 / RFU, FAM179B / Fold change vs veh, FAM179B / RFU, BCL10 / Fold change vs veh, BCL10 / RFU, UHRF1BP1L / Fold change vs veh, UHRF1BP1L / RFU, BET1 / Fold change vs veh, BET1 / RFU, CNOT2 / Fold change vs veh, CNOT2 / RFU, ZNF268 / Fold change vs veh, ZNF268 / Fold change vs veh, ZNF507 / RFU, DGCR2 / Fold change vs veh, DGCR2 / RFU, WDSUB1 / Fold change vs veh, WDSUB1 / Fold change vs veh, HSP90B1 /// MIR3652 / RFU, ADSS / Fold change vs veh, ADSS / RFU, GK / Fold change vs veh, GK / RFU, ZNF148 / Fold change vs veh, ZNF148 / RFU, TAF9 / Fold change vs veh, TAF9 / RFU, SLC1A5 / Fold change vs veh, SLC1A5 / RFU, SLMO2 / Fold change vs veh, SLMO2 / RFU, ABCC4 / Fold change vs veh, ABCC4 / RFU, LOC101060439 /// RAP1B / Fold change vs veh, LOC101060439 /// RAP1B / RFU, RFX7 / Fold change vs veh, RFX7 / RFU, GTPBP10 / Fold change vs veh, GTPBP10 / RFU, CNEP1R1 / Fold change vs veh, CNEP1R1 / RFU, BIVM-ERCC5 /// ERCC5 / Fold change vs veh, BIVM-ERCC5 /// ERCC5 / RFU, ILF3 / Fold change vs veh, ILF3 / RFU 11762660_at / Fold change /veh 11762660_at / RFU VCAN (11757783_s_at) / Fold change /veh VCAN (11757783_s_at) / RFU DDX43 (11728927_at) / Fold change /veh DDX43 (11728927_at) / RFU KRT8 (11758188_x_at) / Fold change /veh KRT8 (11758188_x_at) / RFU NKD1 (11759106_at) / Fold change /veh NKD1 (11759106_at) / RFU SRD5A1 (11742802_a_at) / Fold change /veh SRD5A1 (11742802_a_at) / RFU TPSAB1 /// TPSB2 (11721975_s_at) / Fold change /veh TPSAB1 /// TPSB2 (11721975_s_at) / RFU GSTM3 (11746129_a_at) / Fold change /veh GSTM3 (11746129_a_at) / RFU IL23R (11737362_x_at) / Fold change /veh IL23R (11737362_x_at) / RFU TMEM51 (11727254_a_at) / Fold change /veh TMEM51 (11727254_a_at) / RFU PIWIL2 (11732686_x_at) / Fold change /veh PIWIL2 (11732686_x_at) / RFU ORM1 (11744905_x_at) / Fold change /veh ORM1 (11744905_x_at) / RFU CCDC152 (11743942_at) / Fold change /veh CCDC152 (11743942_at) / RFU ECM1 (11717891_a_at) / Fold change /veh ECM1 (11717891_a_at) / RFU IL23R (11748794_a_at) / Fold change /veh IL23R (11748794_a_at) / RFU TNFAIP8L3 (11732012_x_at) / Fold change /veh TNFAIP8L3 (11732012_x_at) / RFU MBOAT4 (11741988_at) / Fold change /veh MBOAT4 (11741988_at) / RFU 11764193_at / Fold change /veh 11764193_at / RFU TMEM53 (11763286_at) / Fold change /veh TMEM53 (11763286_at) / RFU MAGEB2 (11727129_at) / Fold change /veh MAGEB2 (11727129_at) / RFU TMEM200A (11744735_a_at) / Fold change /veh TMEM200A (11744735_a_at) / RFU CCDC152 (11751479_a_at) / Fold change /veh CCDC152 (11751479_a_at) / RFU FAM211A (11726209_a_at) / Fold change /veh FAM211A (11726209_a_at) / RFU RGS16 (11746705_a_at) / Fold change /veh RGS16 (11746705_a_at) / RFU VCAN (11755009_s_at) / Fold change /veh VCAN (11755009_s_at) / RFU RHOB (11743442_s_at) / Fold change /veh RHOB (11743442_s_at) / RFU RGS16 (11720943_a_at) / Fold change /veh RGS16 (11720943_a_at) / RFU RGS16 (11720944_at) / Fold change /veh RGS16 (11720944_at) / RFU, VPS4B / Fold change vs veh, VPS4B / RFU, CREB1 / Fold change vs veh, CREB1 / RFU, DNAJC13 / Fold change vs veh, DNAJC13 / RFU, GNAQ / Fold change vs veh, GNAQ / RFU, CDK5R1 / Fold change vs veh, CDK5R1 / RFU, ZRANB3 / Fold change vs veh, ZRANB3 / RFU, CUL4A / Fold change vs veh, CUL4A / RFU, CCNY / Fold change vs veh, CCNY / RFU, UFL1 / Fold change vs veh, UFL1 / RFU, COG3 / Fold change vs veh, COG3 / RFU, DIAPH2 / Fold change vs veh, DIAPH2 / RFU, SKA2 / Fold change vs veh, SKA2 / RFU, AFF3 / Fold change vs veh, AFF3 / RFU, LMF1 / Fold change vs veh, LMF1 / RFU, IPO11 / Fold change vs veh, IPO11 / RFU, DFFB / Fold change vs veh, DFFB / RFU, FOXP1 / Fold change vs veh, FOXP1 / RFU, CARD8 / Fold change vs veh, CARD8 / RFU, STRN3 / Fold change vs veh, STRN3 / RFU, ADK / Fold change vs veh, ADK / RFU, RASSF2 / Fold change vs veh, RASSF2 / RFU, WIPF1 / Fold change vs veh, WIPF1 / RFU, LARP1B / Fold change vs veh, LARP1B / RFU, RASA1 / Fold change vs veh, RASA1 / RFU, RB1 / Fold change vs veh, RB1 / RFU, PPFIA1 / Fold change vs veh, PPFIA1 / RFU, MAT2A / Fold change vs veh, MAT2A / RFU, CCT5 / Fold change vs veh, CCT5 / RFU, WDR92 / Fold change vs veh, WDR92 / RFU, CUX1 / Fold change vs veh, CUX1 / RFU, TTC7A / Fold change vs veh, TTC7A / RFU, TMEM135 / Fold change vs veh, TMEM135 / RFU, DEPTOR / Fold change vs veh, DEPTOR / RFU, CPM / Fold change vs veh, CPM / RFU, DNAJB6 / Fold change vs veh, DNAJB6 / RFU, CACNA2D3 / Fold change vs veh, CACNA2D3 / RFU, DTX4 / Fold change vs veh, DTX4 / RFU, TFCP2 / Fold change vs veh, TFCP2 / RFU, GMCL1 /// GMCL1P1 / Fold change vs veh, GMCL1 /// GMCL1P1 / RFU, AEBP2 / Fold change vs veh, AEBP2 / RFU, SNHG1 /// SNORD22 /// SNORD25 /// SNORD26 /// SNORD27 /// SNORD28 /// SNORD29 /// SNORD31 / Fold change vs veh, SNHG1 /// SNORD22 /// SNORD25 /// SNORD26 /// SNORD27 /// SNORD28 /// SNORD29 /// SNORD31 / Fold change (Aza/veh), C12orf56 (ProbeSet 11735607_a_at) / Fold change (ACY-1035/veh), C12orf56 (ProbeSet 11735607_a_at) / Fold change (Aza/veh), FGFR1OP (ProbeSet 11751329_s_at) / Fold change (ACY-1035/veh), FGFR1OP (ProbeSet 11751329_s_at) / Fold change (Aza/veh), VPS36 (ProbeSet 11739960_a_at) / Fold change (ACY-1035/veh), VPS36 (ProbeSet 11739960_a_at) / RFU SYPL1 (11715823_x_at) / Fold change /veh SYPL1 (11715823_x_at) / RFU IGFBP7 (11715501_s_at) / Fold change /veh IGFBP7 (11715501_s_at) / RFU REEP3 (11722064_at) / Fold change /veh REEP3 (11722064_at) / RFU IGLL1 (11728026_x_at) / Fold change /veh IGLL1 (11728026_x_at): dose or concentration left out as unconfirmed
Conditions: ProbeSet 11723475_a_at; LIST B

In the case of Nc1ncn([C@@H]2O[C@H](CO)[C@@H](O)[C@H]2O)c(=O)n1 [azacitidine], the “Fold change vs veh, TRMT61B” value is reported as 0.91.

Reference: paper PMC5218480 (PLoS ONE, 2017)
